Experimental data published in US8785638B2, “Thieno [2, 3-B] pyridine derivatives as viral replication inhibitors” (Katholieke Universiteit Leuven, priority 2009, dated 2014).

How the values were obtained:
[1] = target: LEDGF/p75-HIV-1 integrase interaction (Human immunodeficiency virus type 1 group M subtype B (isolate HXB2) (HIV-1), UniProt P04585); assay: AlphaScreen assay of LEDGF-integrase interaction inhibition; assay type: binding; settings: His6-tagged integrase 300 nM, flag-LEDGF/p75 100 nM; read-out: Alphascreen IC50
Procedure: Alphascreen Assay to Measure the LEDGF-Integrase Interaction Inhibitory Activity of Compounds of the Invention
The AlphaScreen assay was performed according to the manufacturer's protocol (Perkin Elmer, Benelux). Reactions were performed in 25 μl final volume in 384-well Optiwell™ microtiter plates (Perkin Elmer). The reaction buffer contained 25 mM Tris-HCl (pH 7.4), 150 mM NaCl, 1 mM MgCl2, 0.01% (v/v) Tween-20 and 0.1% (w/v) bovine serum albumin. His6-tagged integrase (300 nM final concentration) was incubated with the compounds for 30 min at 4° C. The compounds were added at varying concentrations spanning a wide range from 0.1 up to 100 μM. Afterwards 100 nM flag-LEDGF/p75 was added and incubation was prolonged for an additional hour at 4° C. Subsequently 5 μl of Ni-chelate-coated acceptor beads and 5 μl anti-flag donor beads were added to a final concentration of 20 μg/ml of both beads. Proteins and beads were incubated for 1 h at 30° C. in order to allow association to occur. Exposure of the reaction to direct light was omitted as much as possible and the emission of light from the acceptor beads was measured in the EnVision plate reader (Perkin Elmer, Benelux) and analyzed using the EnVision manager software. IN/DNA binding was analyzed in a similar setting using His6-tagged integrase (1 μM final concentration) and an oligodeoxynucleotide mimicking the IN ELISA oligonucleotide substrate (30 nM final concentration). Counterscreens with JPO2 or PogZ, respectively, were essentially performed as described previously.
His6-tagged HIV-1 integrase, 3xflag-tagged LEDGF/p75, MBP-JPO2 and MBP-PogZ were purified for AlphaScreen applications as described previously 23,25,56.

[2] = test system: HIV-1 (IIIB), HIV-1 (NL4.3); assay: microbe, parasite or virus in culture; assay type: cell-based; settings: for EC50: Human immunodeficiency virus 1, IIIB, MT4, MT-4 cells, 50% protection against HIV-induced cytopathogenic effect, MTT; for SI: selectivity index, ratio of CC50 to EC50
Procedure: (§1) A rapid and automated assay procedure was used for the in vitro evaluation of anti-HIV agents. An HTLV-1 transformed T4-cell line MT-4, which was previously shown to be highly susceptible to and permissive for HIV infection, served as the target cell line. Inhibition of the HIV-induced cytopathogenic effect was used as the end point. The viabitlity of both HIV- and mock-infected cells was assessed spectrophotometrically via in situ reduction of 3-(4,5-dimethylthiazol-2-yl)-2,5-diphenyltetrazolium bromide (MTT). The 50% cytotoxic concentration (CC50 in μM or μg/ml) was defined as the concentration of compound that reduced the absorbance of the mock-infected control sample by 50%. The percent protection achieved by the compound in HIV-infected cells was calculated by the following formula:
(§2) [formula] whereby (ODT)HIV is the optical density measured with a given concentration of the test compound in HIV-infected cells; (ODC)HIV is the optical density measured for the control untreated HIV-infected cells; (ODC)MOCK is the optical density measured for the control untreated mock-infected cells; all optical density values were determined at 540 nm. The dose achieving 50% protection according to the above formula was defined as the 50% inhibitory concentration (EC50 in μM or μg/ml). The ratio of CC50 to EC50 was defined as the selectivity index (SI). […] Examples of inhibition of cell proliferation by particular compounds of the invention can be found by looking at the respective CC50 values in the MT-4 cell line. Cells:
(§3) MT-4 cells (Miyoshi et al., 1982) were grown and maintained in RPMI 1640 medium supplemented with 10% heat-inactivated fetal calf serum, 2 mM I-glutamine, 0.1% sodium bicarbonate, and 20 μg of gentamicin per ml. Alternatively, the MT-4 cells may also be grown in RPMI 1640 medium supplemented with 10% FCS and 20 μg/ml of gentamicin (RPMI-complete).
The HIV-1 (IIIB) strain (Popovic et al., 1984) as well as the HIV-1 (NL4.3) strain (Adachi et al., J. Virol. 59, 284-291 (1986)) were used.

[3] = Cytotoxicity in mock-infected MT-4 cells (MTT); assay type: cell-based; settings: human, 50% cytotoxic concentration
Procedure: as §1, §2, §3

Row | Structure (SMILES) | IC50 [1] | EC50 [2] | SI [2] | CC50 [3]
1 | CCCC(C(=O)O)c1c(C)nc2sc3c(c2c1-c1ccc(C)cc1)CCC3 (stereo not drawn) [Cpd 100, 2-[2-Methyl-4-p-tolyl-6,7-dihydro-5H-cyclopenta[4,5]thieno[2,3-b]pyridin-3-yl]pentanoic acid] | 6.61 µM | 1.69 µM | 72 | 121 µM
2 | Cc1ccc(-c2c(CC(=O)O)c(C)nc3sc4c(c23)CCC4)cc1 [Cpd 101, [2-Methyl-4-p-tolyl-6,7-dihydro-5H-cyclopenta[4,5]thieno[2,3-b]pyridin-3-yl]acetic acid] | 55.3 µM | 64.1 µM | >2 | > 125 µM
3 | CCc1sc2nc(C)c(CC(=O)O)c(-c3ccc(C)cc3)c2c1C [Cpd 105, (2-Ethyl-3,6-dimethyl-4-p-tolylthieno[2,3-b]pyridin-5-yl)acetic acid] | 64.3 µM | > 62.7 µM | – | 62.7 µM
4 | Cc1ccc(-c2c(CC(=O)O)c(C)nc3sc(C)cc23)cc1 [Cpd 106, (2,6-Dimethyl-4-p-tolylthieno[2,3-b]pyridin-5-yl)acetic acid] | 53.9 µM | 96.4 µM | >1 | > 125 µM
5 | CCCC(C(=O)O)c1c(C)nc2sc3c(c2c1-c1ccccc1)CCC3 (stereo not drawn) [Cpd 107, 2-[2-Methyl-4-phenyl-6,7-dihydro-5H-cyclopenta[4,5]thieno[2,3-b]pyridin-3-yl]pentanoic acid] | 34.7 µM | 13.2 µM | 8 | 75.7 µM
6 | CCCC(C(=O)O)c1c(C)nc2sc(C)c(C)c2c1-c1ccc(C)cc1 (stereo not drawn) [Cpd 108, 2-(2,3,6-Trimethyl-4-p-tolylthieno[2,3-b]pyridin-5-yl)pentanoic acid] | 4.48 µM | 2.19 µM | 27 | 57.9 µM
7 | CCCC(C(=O)O)c1c(C)nc2sc(C)c(CC)c2c1-c1ccc(C)cc1 (stereo not drawn) [Cpd 109, 2-(3-Ethyl-2,6-dimethyl-4-p-tolylthieno[2,3-b]pyridin-5-yl)pentanoic acid] | 6.81 µM | 2.22 µM | 26 | 57.9 µM
8 | CCCC(C(=O)O)c1c(C)nc2sc(C)cc2c1-c1ccc(C)cc1 (stereo not drawn) [Cpd 110, 2-(2,6-Dimethyl-4-p-tolylthieno[2,3-b]pyridin-5-yl)pentanoic acid] | 4.31 µM | 0.76 µM | 95 | 72.2 µM
9 | CCCC(C(=O)O)c1c(C)nc2sc(CC)c(C)c2c1-c1ccc(C)cc1 (stereo not drawn) [Cpd 111, 2-(2-Ethyl-3,6-dimethyl-4-p-tolylthieno[2,3-b]pyridin-5-yl)pentanoic acid] | – | 1.28 µM | 43 | 54.4 µM
10 | CCCC(C(=O)O)c1c(C)nc2sc3c(c2c1-c1ccc(Cl)cc1)CCC3 (stereo not drawn) [Cpd 112, 2-[2-Methyl-4-(4-chlorophenyl)-6,7-dihydro-5H-cyclopenta[4,5]thieno[2,3-b]pyridin-3-yl]pentanoic acid] | 1.11 µM | 0.803 µM | 84 | 67.7 µM
11 | CCCC(C(=O)O)c1c(C)nc2sc3c(c2c1-c1ccc(C)cc1)CCCC3 (stereo not drawn) [Cpd 113, 2-[2-Methyl-4-p-tolyl-5,6,7,8-tetrahydro[1]benzothieno[2,3-b]pyridin-3-yl]pentanoic acid] | 0.75 µM | 0.44 µM | 183 | 80.6 µM
12 | CCC[C@H](C(=O)O)c1c(C)nc2sc3c(c2c1-c1ccc(C)cc1)CCCC3 [Cpd 114, (2S)-[2-Methyl-4-p-tolyl-5,6,7,8-tetrahydro[1]benzothieno[2,3-b]pyridin-3-yl]pentanoic acid] | < 1 µM | 0.58 µM | 217 | 126 µM
13 | CCC[C@@H](C(=O)O)c1c(C)nc2sc3c(c2c1-c1ccc(C)cc1)CCCC3 [Cpd 115, (2R)-[2-Methyl-4-p-tolyl-5,6,7,8-tetrahydro[1]benzothieno[2,3-b]pyridin-3-yl]pentanoic acid] | 17.6 µM | 5.03 µM | 26 | 131 µM
14 | CCCC(C(=O)O)c1c(C)nc2sc3c(c2c1-c1ccc(C(F)(F)F)cc1)CCC3 (stereo not drawn) [Cpd 116, 2-[2-Methyl-4-(4-trifluoromethylphenyl)-6,7-dihydro-5H-cyclopenta[4,5]thieno[2,3-b]pyridin-3-yl]pentanoic acid] | 0.62 µM | 1.21 µM | 12 | 14.7 µM
15 | CCCC(C(=O)O)c1c(C)nc2sc3c(c2c1-c1ccc(CC)cc1)CCC3 (stereo not drawn) [Cpd 117, 2-[2-Methyl-4-(4-ethylphenyl)-6,7-dihydro-5H-cyclopenta[4,5]thieno[2,3-b]pyridin-3-yl]pentanoic acid] | 0.78 µM | 0.53 µM | 107 | 54.3 µM
16 | CCCC(C(=O)O)c1c(C)nc2scc(C)c2c1-c1ccc(C)cc1 (stereo not drawn) [Cpd 118, 2-(3,6-Dimethyl-4-p-tolylthieno[2,3-b]pyridin-5-yl)pentanoic acid] | 23.4 µM | > 50.2 µM | – | 50.2 µM
17 | CCCC(C(=O)O)c1c(C)nc2sccc2c1-c1ccc(C)cc1 (stereo not drawn) [Cpd 119, 2-(6-Methyl-4-p-tolylthieno[2,3-b]pyridin-5-yl)pentanoic acid] | 2.66 µM | 31.6 µM | 4 | 109 µM
18 | CCCC(C(=O)O)c1c(C)nc2sc3ccccc3c2c1-c1ccc(C)cc1 (stereo not drawn) [Cpd 120, 2-[2-Methyl-4-p-tolylbenzo[4,5]thieno[2,3-b]pyridin-3-yl]pentanoic acid] | 2.72 µM | 1.51 µM | 67 | 101 µM
19 | COCCC(C(=O)O)c1c(C)nc2sc3c(c2c1-c1ccc(C)cc1)CCC3 (stereo not drawn) [Cpd 122, 2-[2-methyl-4-(p-tolyl)-6,7-dihydro-5H-cyclopenta[4,5]thieno[2,3-b]pyridin-3-yl]-4-O-methoxy-butanoic acid] | 3.2 µM | 5.3 µM | 15 | 79.8 µM
20 | C=C(C(=O)O)c1c(C)nc2sc3c(c2c1-c1ccc(C)cc1)CCC3 [Cpd 124, 2-[2-methyl-4-p-tolyl-6,7-dihydro-5H-cyclopenta[4,5]thieno[2,3-b]pyridin-3-yl]acrylic acid] | 41 µM | > 117 µM | – | 117 µM
21 | COCC(C(=O)O)c1c(C)nc2sc3c(c2c1-c1ccc(C)cc1)CCC3 (stereo not drawn) [Cpd 125, 2-[2-Methyl-4-(p-tolyl)-6,7-dihydro-5H-cyclopenta[4,5]thieno[2,3-b]pyridin-3-yl]-3-methoxypropanoic acid] | 77 µM | 66.5 µM | >2 | > 125 µM
22 | CCCC(C(=O)O)c1c(-c2ccccc2)nc2sc3c(c2c1-c1ccc(C)cc1)CCC3 (stereo not drawn) [Cpd 126, 2-[2-phenyl-4-p-tolyl-6,7-dihydro-5H-cyclopenta[4,5]thieno[2,3-b]pyridin-3-yl]pentanoic acid] | 56.3 µM | > 30.1 µM | – | 30.1 µM
23 | CCCC(C(=O)O)c1c(C)nc2sc3c(c2c1-c1ccc(C)cc1)CC(C)C3 (stereo not drawn) [Cpd 127, 2-[2-methyl-6-methyl-4-p-tolyl-6,7-dihydro-5H-cyclopenta[4,5]thieno[2,3-b]pyridin-3-yl]pentanoic acid] | 2.85 µM | 0.79 µM | 105 | 82.9 µM
